The structures appear in SMILES notation.

Holding throughout (assay): Protein kinase inhibition assay
What all share (type): biochemical

For assay [1], the target named is PKCη(h) (Homo sapiens, UniProt P24723). The note with it: read-out: percent residual activity of PKCη(h). On the procedure:
(§1) Certain compounds were tested for activity in protein kinase inhibition assays. All substrates were dissolved and diluted to working stocks in de-ionized water, apart from histone H1 (10× working stock in 20 mM MOPS pH 7.0), PDKtide (10× working stock in 50 mM Tris pH 7.0) ATF2 (which is typically stored at a 20× working stock in 50 mM Tris pH 7.5, 150 mM NaCl, 0.1 mM EGTA, 0.03% Brij-35, 50% glycerol, 1 mM benzamidine, 0.2 mM PMSF and 0.1% R-mercaptoethanol), KKLNRTLSFAEPG (SEQ ID NO:203) and RRRLSFAEPG (SEQ ID NO:204) (50 mM HEPES pH 7.4) and GGEEEEYFELVKKKK (SEQ ID NO:205) (20 mM MOPS pH 7.0). All kinases were pre-diluted to a 10× working concentration prior to addition into the assay. The composition of the dilution buffer for each kinase is detailed below.
In a final reaction volume of 25 μl, PKCη (h) (5-10 mU) is incubated with 20 mM HEPES pH 7.4, 0.03% Triton X-100, 0.1 mM CaCl2, 0.1 mg/ml phosphatidylserine, 10 μg/ml diacylglycerol, 50 μM ERMRPRKRQGSVRRRV (SEQ ID NO:234), 10 mM MgAcetate and [gamma-33P-ATP] (specific activity approx. 500 cpm/pmol, concentration as required). The reaction is initiated by the addition of the MgATP mix. After incubation for 40 minutes at room temperature, the reaction is stopped by the addition of 5 μl of a 3% phosphoric acid solution. […]

In assay [2] the target is PKBβ(h) (Homo sapiens, UniProt P31751). To be noted: read-out: percent residual activity of PKBβ(h). On the procedure:
as §1
(§2) In a final reaction volume of 25 μl, PKBβ (h) (5-10 mU) is incubated with 8 mM MOPS pH 7.0, 0.2 mM EDTA, 30 μM GRPRTSSFAEGKK (SEQ ID NO:232), 10 mM MgAcetate and [gamma-33P-ATP] (specific activity approx. 500 cpm/pmol, concentration as required). The reaction is initiated by the addition of the MgATP mix. After incubation for 40 minutes at room temperature, the reaction is stopped by the addition of 5 μl of a 3% phosphoric acid solution. 10 μl of the reaction is then spotted onto a P30 filtermat and washed three times for 5 minutes in 75 mM phosphoric acid and once in methanol prior to drying and scintillation counting.

Assay [3] deals with MAPK2(m) (Mus musculus, UniProt P63085). To be noted: read-out: percent residual activity of MAPK2(m). Here is the method: as §1
Chain of MAPK2(m) (P63085 whole entry): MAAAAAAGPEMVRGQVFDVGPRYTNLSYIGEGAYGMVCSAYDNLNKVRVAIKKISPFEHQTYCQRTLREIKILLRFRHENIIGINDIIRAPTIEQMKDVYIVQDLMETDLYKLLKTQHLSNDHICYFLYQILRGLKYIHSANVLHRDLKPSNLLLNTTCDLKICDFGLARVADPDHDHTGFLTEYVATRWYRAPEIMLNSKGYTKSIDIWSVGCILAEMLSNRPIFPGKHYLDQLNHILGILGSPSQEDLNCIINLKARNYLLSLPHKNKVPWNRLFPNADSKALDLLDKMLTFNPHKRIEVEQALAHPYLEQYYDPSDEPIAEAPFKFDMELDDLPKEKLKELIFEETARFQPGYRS
as §2, with “μl, MAPK2 (m)” for “μl, PKBβ (h)”, “with 25” for “with 8”, “mM Tris” for “mM MOPS”, “pH 7.5, 0.02” for “pH 7.0, 0.2”, “mM EGTA, 0.33 mg/ml myelin basic protein,” for “mM EDTA, 30 μM GRPRTSSFAEGKK (SEQ ID NO:232),”, “10 μpl” for “10 μl”

Assay [4] concerns the target PKG1β(h) (Homo sapiens, UniProt Q13976). The note with it: read-out: percent residual activity of PKG1β(h). Here is the method:
as §1
In a final reaction volume of 25 μl, PKG1β (h) (5-10 mU) is incubated with 8 mM MOPS pH 7.0, 0.2 mM EDTA, 10 μM cGMP, 200 μM RRRLSFAEPG (SEQ ID NO:223), 10 mM MgAcetate and [gamma-33P-ATP] (specific activity approx. 500 cpm/pmol, concentration as required). The reaction is initiated by the addition of the MgATP mix. After incubation for 40 minutes at room temperature, the reaction is stopped by the addition of 5 μl of a 3% phosphoric acid solution. […]

The target in assay [5] is TSSK2(h) (Homo sapiens, UniProt Q96PF2). The note with it: read-out: percent residual activity of TSSK2(h). On the procedure:
as §1
as §2, with “μl, TSSK2” for “μl, PKBβ”, “EDTA, 100” for “EDTA, 30”, “μM […]” for “μM GRPRTSSFAEGKK”, “ID NO:213),” for “ID NO:232),”, “and [y-33P-ATP]” for “and [gamma-33P-ATP]”

In assay [6] the target is Fgr(h) (Homo sapiens, UniProt P09769). The note with it: read-out: percent residual activity of Fgr(h). Here is the method: as §1
Chain of Fgr(h) (P09769 whole entry): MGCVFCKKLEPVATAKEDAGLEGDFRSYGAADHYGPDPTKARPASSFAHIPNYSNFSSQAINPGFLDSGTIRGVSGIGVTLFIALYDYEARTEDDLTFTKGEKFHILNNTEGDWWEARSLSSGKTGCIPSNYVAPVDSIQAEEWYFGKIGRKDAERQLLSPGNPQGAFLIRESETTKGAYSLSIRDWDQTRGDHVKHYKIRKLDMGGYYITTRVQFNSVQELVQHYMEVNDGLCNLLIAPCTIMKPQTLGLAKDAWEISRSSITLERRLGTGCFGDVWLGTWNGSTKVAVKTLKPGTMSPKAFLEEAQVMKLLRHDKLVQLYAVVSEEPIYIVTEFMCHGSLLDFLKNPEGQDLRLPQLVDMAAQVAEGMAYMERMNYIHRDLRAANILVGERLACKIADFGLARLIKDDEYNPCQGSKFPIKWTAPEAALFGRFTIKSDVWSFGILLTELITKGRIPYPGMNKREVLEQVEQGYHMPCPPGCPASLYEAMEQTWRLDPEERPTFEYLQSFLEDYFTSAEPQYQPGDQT
as §2, with “Fgr” for “PKBβ”, “0.1 mg/ml poly(Glu, Tyr) 4:1,” for “30 μM GRPRTSSFAEGKK (SEQ ID NO:232),”, “Filtermat A” for “P30 filtermat”

Chain of PKCη(h) (P24723 whole entry): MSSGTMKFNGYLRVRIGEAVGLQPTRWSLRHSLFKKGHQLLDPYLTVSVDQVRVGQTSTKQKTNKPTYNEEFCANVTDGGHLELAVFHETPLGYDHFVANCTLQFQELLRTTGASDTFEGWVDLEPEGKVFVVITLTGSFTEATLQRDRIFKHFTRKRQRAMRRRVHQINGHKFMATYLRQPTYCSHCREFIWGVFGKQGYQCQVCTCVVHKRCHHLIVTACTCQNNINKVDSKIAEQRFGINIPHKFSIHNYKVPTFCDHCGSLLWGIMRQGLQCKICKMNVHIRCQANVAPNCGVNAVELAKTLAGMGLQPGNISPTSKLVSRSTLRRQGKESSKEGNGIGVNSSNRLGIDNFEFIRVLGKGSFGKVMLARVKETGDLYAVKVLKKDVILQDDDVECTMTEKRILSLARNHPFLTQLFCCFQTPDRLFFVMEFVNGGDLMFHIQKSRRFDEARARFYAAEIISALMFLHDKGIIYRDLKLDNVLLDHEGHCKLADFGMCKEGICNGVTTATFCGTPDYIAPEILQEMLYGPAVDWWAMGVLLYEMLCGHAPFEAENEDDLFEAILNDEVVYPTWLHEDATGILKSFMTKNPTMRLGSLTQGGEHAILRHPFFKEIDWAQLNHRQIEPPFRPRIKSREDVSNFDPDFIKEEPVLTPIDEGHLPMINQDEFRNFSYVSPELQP
Chain of TSSK2(h) (Q96PF2 whole entry): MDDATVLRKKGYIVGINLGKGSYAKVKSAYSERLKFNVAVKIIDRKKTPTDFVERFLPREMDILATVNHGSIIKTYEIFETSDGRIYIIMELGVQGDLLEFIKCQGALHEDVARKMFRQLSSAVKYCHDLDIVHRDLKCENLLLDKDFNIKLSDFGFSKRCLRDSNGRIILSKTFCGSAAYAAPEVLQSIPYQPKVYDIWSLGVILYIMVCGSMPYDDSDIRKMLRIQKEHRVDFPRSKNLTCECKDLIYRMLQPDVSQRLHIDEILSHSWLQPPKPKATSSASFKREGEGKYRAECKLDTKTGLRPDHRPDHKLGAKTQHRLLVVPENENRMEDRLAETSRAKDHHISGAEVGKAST
Chain of PKBβ(h) (P31751 whole entry): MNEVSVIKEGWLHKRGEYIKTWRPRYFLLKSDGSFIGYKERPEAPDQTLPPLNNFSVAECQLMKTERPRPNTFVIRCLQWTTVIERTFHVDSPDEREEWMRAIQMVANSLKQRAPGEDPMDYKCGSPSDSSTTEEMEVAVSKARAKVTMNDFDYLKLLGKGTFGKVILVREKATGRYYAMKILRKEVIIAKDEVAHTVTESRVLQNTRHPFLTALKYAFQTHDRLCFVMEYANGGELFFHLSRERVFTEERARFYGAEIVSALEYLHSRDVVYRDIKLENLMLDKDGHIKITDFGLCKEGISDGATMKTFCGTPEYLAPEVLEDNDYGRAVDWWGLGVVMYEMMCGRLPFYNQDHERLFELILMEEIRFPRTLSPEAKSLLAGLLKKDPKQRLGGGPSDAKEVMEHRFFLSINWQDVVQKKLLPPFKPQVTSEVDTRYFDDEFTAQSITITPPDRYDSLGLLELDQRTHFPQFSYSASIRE
Chain of PKG1β(h) (Q13976 1-686 isoform Q13976-2): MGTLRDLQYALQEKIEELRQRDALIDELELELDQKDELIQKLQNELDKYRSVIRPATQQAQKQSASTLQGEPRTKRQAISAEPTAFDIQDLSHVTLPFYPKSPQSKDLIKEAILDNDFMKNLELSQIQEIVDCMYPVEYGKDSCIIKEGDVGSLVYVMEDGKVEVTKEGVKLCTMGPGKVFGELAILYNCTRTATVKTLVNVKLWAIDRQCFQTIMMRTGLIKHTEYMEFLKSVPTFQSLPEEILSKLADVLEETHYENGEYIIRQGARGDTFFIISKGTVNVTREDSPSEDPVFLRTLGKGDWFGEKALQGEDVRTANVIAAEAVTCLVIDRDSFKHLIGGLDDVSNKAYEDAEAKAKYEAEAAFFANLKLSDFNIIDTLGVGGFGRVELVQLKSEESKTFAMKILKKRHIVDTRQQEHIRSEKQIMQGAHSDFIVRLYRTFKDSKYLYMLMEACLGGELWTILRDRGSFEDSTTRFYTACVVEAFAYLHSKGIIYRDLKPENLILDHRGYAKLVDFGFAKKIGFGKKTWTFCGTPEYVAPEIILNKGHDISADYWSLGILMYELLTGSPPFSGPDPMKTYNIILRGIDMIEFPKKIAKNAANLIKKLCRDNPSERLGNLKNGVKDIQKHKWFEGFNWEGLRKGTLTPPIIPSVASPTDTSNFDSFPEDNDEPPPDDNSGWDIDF

With `CN1CCCC1CCNC(=O)c1cn2c3c(c(N4CCC(c5cnccn5)C4)c(F)cc3c1=O)Oc1cc3ccccc3cc1-2` (stereo not drawn) [Compound A-1], the remaining activity at 2.5 µM stood at 80% in assay [1]; 48% in assay [2]; 95% in assay [3]; 48% in assay [4]; 105% in assay [5]; 78% in assay [6].

Regarding `CC(=O)N1CCN(c2ccc3c(=O)c(C(=O)NCCN4CCCC4)c4n(C)c5ccccc5n4c3n2)CC1` [Compound B-1], the remaining activity at 2.5 µM in assay [1] was 80%; in assay [2], 106%; in assay [3], 102%; in assay [4], 107%; in assay [5], 110%; in assay [6] it was 98%.

These data come from patent US20070117770A1, “Human ribosomal DNA (rDNA) and ribosomal RNA (rRNA) nucleic acids and uses thereof” (Cylene Pharmaceuticals, Inc., priority 2005, published 2007).
